In patent US9856216B2, “Compounds as TNIK, IKKε and TBK1 inhibitors and pharmaceutical composition comprising same” (GREEN CROSS CORPORATION, priority 2015, dated 2018):

Each molecule was assayed against T1, TNIK (Homo sapiens, UniProt Q9UKE5) (assay: ADP-Glo Kinase Assay, inhibition activity on TNIK). Details: read-out: TNIK.
T1 construct: purchased Promega V4158
T1 sequence (Q9UKE5 1-367 limits assumed): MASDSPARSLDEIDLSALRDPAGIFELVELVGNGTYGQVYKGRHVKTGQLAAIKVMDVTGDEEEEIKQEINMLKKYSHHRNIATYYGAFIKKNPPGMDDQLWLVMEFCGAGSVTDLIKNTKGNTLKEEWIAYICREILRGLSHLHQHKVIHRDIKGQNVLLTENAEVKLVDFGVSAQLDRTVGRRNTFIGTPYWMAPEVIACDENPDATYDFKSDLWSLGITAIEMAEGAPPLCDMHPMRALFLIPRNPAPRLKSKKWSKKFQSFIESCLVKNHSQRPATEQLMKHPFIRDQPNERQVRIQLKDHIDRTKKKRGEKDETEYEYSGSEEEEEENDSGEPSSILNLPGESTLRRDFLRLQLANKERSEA
Format: biochemical
Experimental: The inhibition activities on TNIK, IKKε and TBK1 were measured by a luminometer, TNIK/IKKε/TBK1 Kinase Enzyme System (Promega, Ca# V4158; Invitrogen, PR8031B, Promega, Ca# V3991) and ADP-Glo Kinase Assay using ADP-Glo™ Kinase Analysis Kit (Promega, Ca# V9101) and a kinase reaction buffer [40 mM Tris(pH 7.5), 20 mM MgCl2, 0.1 mg/mL BSA] in accordance with the manufacturer's protocol.
`CN(C)CCCNc1ccc(C(=O)Nc2ccc(-c3ccccc3)c3c2C(=O)NC3)cc1` [Example 381, 4-((3-(Dimethylamino)propyl)amino)-N-(3-oxo-7-phenylisoindolin-4-yl) benzamide] was tested, and the IC50 was 0.31 µM. `O=C(Nc1ccc(-c2ccccc2)c2c1C(=O)NC2)c1ccc(NCCCO)cc1` [Example 382, 4-((3-Hydroxypropyl)amino)-N-(3-oxo-7-phenylisoindolin-4-yl) benzamide] was tested, and the IC50 was 0.33 µM. `O=C(Nc1ccc(-c2ccccc2)c2c1C(=O)NC2)c1ccc(NCCCCO)cc1` [Example 383, 4-((4-Hydroxybutyl)amino)-N-(3-oxo-7-phenylisoindolin-4-yl) benzamide] gave an IC50 of 0.38 µM. `O=C(Nc1ccc(-c2cc3ccccc3o2)c2c1C(=O)NC2)c1ccc(NCCN2CCCC2)cc1` [Example 384, N-(7-(benzofuran-2-yl)-3-oxoisoindolin-4-yl)-4-((2-(pyrrolidin-1-yl)ethyl)amino)benzamide] was tested, and the IC50 was 1.11 µM. With `O=C(Nc1ccc(-c2ccc3ncccc3c2)c2c1C(=O)NC2)c1ccc(NCCN2CCCC2)cc1` [Example 385, N-(3-oxo-7-(quinolin-6-yl)isoindolin-4-yl)-4-((2-(pyrrolidin-1-yl)ethyl)amino)benzamide] the IC50 was 0.78 µM. In the case of `O=C(Nc1ccc(-c2cccc3ncccc23)c2c1C(=O)NC2)c1ccc(NCCN2CCCC2)cc1` [Example 386, N-(3-oxo-7-(quinolin-5-yl)isoindolin-4-yl)-4-((2-(pyrrolidin-1-yl)ethyl)amino)benzamide], the IC50 is reported as 0.099 µM. In the case of `O=C(Nc1ccc(-c2ccnc3ccccc23)c2c1C(=O)NC2)c1ccc(NCCN2CCCC2)cc1` [Example 387, N-(3-oxo-7-(quinolin-4-yl)isoindolin-4-yl)-4-((2-(pyrrolidin-1-yl)ethyl)amino)benzamide], the IC50 is reported as 0.033 µM. In the case of `O=C(Nc1ccc(C(=O)O)c2c1C(=O)NC2)c1ccc(F)cc1` [Example 388, 7-(4-Fluorobenzamido)-1-oxoisoindoline-4-carboxylic acid], the IC50 is reported as 3.89 µM. In the case of `CNC(=O)c1ccc(NC(=O)c2ccc(F)cc2)c2c1CNC2=O` [Example 389, 7-(4-Fluorobenzamido)-N-methyl-1-oxoisoindoline-4-carboxamide], the IC50 is reported as > 20 µM. `CNC(=O)c1ccc(NC(=O)c2ccc(NCCN3CCCC3)cc2)c2c1CNC2=O` [Example 390, N-methyl-1-oxo-7-(4-((2-(pyrrolidin-1-yl)ethyl)amino)benzamido)isoindoline-4-carboxamide] gave an IC50 of 3.87 µM. In the case of `O=C(Nc1ccc(C(=O)N2CCCC2)c2c1C(=O)NC2)c1ccc(F)cc1` [Example 391, 4-Fluoro-N-(3-oxo-7-(pyrrolidine-1-carbonyl)isoindolin-4-yl) benzamide], the IC50 is reported as > 20 µM. For `O=C(Nc1ccc(C(=O)N2CCCC2)c2c1C(=O)NC2)c1ccc(NCCN2CCCC2)cc1` [Example 392, N-(3-oxo-7-(pyrrolidine-1-carbonyl)isoindolin-4-yl)-4-((2-(pyrrolidin-1-yl)ethyl)amino)benzamide], the IC50 was > 20 µM. `CC(C)(O)c1ccc(NC(=O)c2ccc(F)cc2)c2c1CNC2=O` [Example 393, 4-Fluoro-N-(7-(2-hydroxypropan-2-yl)-3-oxoisoindolin-4-yl) benzamide] gave an IC50 of 2.57 µM. In the case of `CC(C)(O)c1ccc(NC(=O)c2ccc(NCCN3CCCC3)cc2)c2c1CNC2=O` [Example 394, N-(7-(2-hydroxypropan-2-yl)-3-oxoisoindolin-4-yl)-4-((2-(pyrrolidin-1-yl)ethyl)amino)benzamide], the IC50 is reported as 5.44 µM. With `O=C(Nc1ccc(O)c2c1C(=O)NC2)c1ccc(F)cc1` [Example 396, 4-Fluoro-N-(7-hydroxy-3-oxoisoindolin-4-yl)benzamide] the IC50 was 1.29 µM. For `CC(=O)Nc1ccc(C(=O)Nc2ccc(-c3ccccc3)c3c2C(=O)NCC3)cc1` [Example 397, 4-Acetamido-N-(1-oxo-5-phenyl-1,2,3,4-tetrahydroisoquinolin-8-yl)benzamide], the IC50 was 5.4 µM. `O=C(Nc1ccc(-c2ccccc2)c2c1C(=O)NCC2)c1ccccc1` [Example 398, N-(1-oxo-5-phenyl-1,2,3,4-tetrahydroisoquinolin-8-yl) benzamide] showed an IC50 of 3.3 µM. Work on `O=C(Nc1ccc(-c2ccccc2)c2c1C(=O)NCC2)c1ccco1` [Example 399, N-(1-oxo-5-phenyl-1,2,3,4-tetrahydroisoquinolin-8-yl)furan-2-carboxamide] yielded an IC50 of 1.8 µM. For `COc1cccc(-c2ccc(NC(=O)c3ccc(F)cc3)c3c2CCNC3=O)c1OC` [Example 400, N-(5-(2,3-dimethoxyphenyl)-1-oxo-1,2,3,4-tetrahydroisoquinolin-8-yl)-4-fluorobenzamide], the IC50 was 8.18 µM. In the case of `O=C(Nc1ccc(-c2ccccc2)c2c1C(=O)NCC2)c1ccc(NCCN2CCCC2)cc1` [Example 401, N-(1-oxo-5-phenyl-1,2,3,4-tetrahydroisoquinolin-8-yl)-4-((2-(pyrrolidin-1-yl)ethyl)amino)benzamide], the IC50 is reported as 2.15 µM. Work on `COc1ccccc1-c1ccc(NC(=O)c2ccc(NCCN3CCCC3)cc2)c2c1CCNC2=O` [Example 402, N-(5-(2-methoxyphenyl)-1-oxo-1,2,3,4-tetrahydroisoquinolin-8-yl)-4-((2-(pyrrolidin-1-yl)ethyl)amino)benzamide] yielded an IC50 of 2.38 µM. In the case of `O=C(Nc1ccc(Br)c2c1C(=O)NCC2)c1ccc(NCCN2CCCC2)cc1` [Example 403, N-(5-bromo-1-oxo-1,2,3,4-tetrahydroisoquinolin-8-yl)-4-((2-(pyrrolidin-1-yl)ethyl)amino)benzamide], the IC50 is reported as 9.82 µM. In the case of `O=C(Nc1ccc(Sc2ccccc2)c2c1C(=O)NC2)c1ccc(F)cc1` [Example 404, 4-Fluoro-N-(3-oxo-7-(phenylthio)isoindolin-4-yl)benzamide], the IC50 is reported as > 20 µM. With `O=C(Nc1ccc(S(=O)(=O)c2ccccc2)c2c1C(=O)NC2)c1ccccc1` [Example 406, N-(3-oxo-7-(phenylsulfonyl)isoindolin-4-yl)benzamide] the IC50 was > 20 µM. Molecule `O=C(Nc1ccc(Sc2ccccc2)c2c1C(=O)NC2)c1ccccc1` [Example 407, N-(3-oxo-7-(phenylthio)isoindolin-4-yl)benzamide] has an IC50 of 2.3 µM. Molecule `O=C(Nc1ccc(Nc2ccccc2)c2c1C(=O)NC2)c1ccc(F)cc1` [Example 408, 4-Fluoro-N-(3-oxo-7-(phenylamino)isoindolin-4-yl)benzamide] has an IC50 of 0.28 µM. Work on `O=C(Nc1ccc(Nc2ccccc2)c2c1C(=O)NC2)c1ccccc1` [Example 409, N-(3-oxo-7-(phenylamino)isoindolin-4-yl)benzamide] yielded an IC50 of 0.32 µM. Molecule `COc1ccccc1Nc1ccc(NC(=O)c2ccccc2)c2c1CNC2=O` [Example 410, N-(7-((2-methoxyphenyl)amino)-3-oxoisoindolin-4-yl) benzamide] has an IC50 of 0.45 µM. With `Cc1ccccc1Nc1ccc(NC(=O)c2ccccc2)c2c1CNC2=O` [Example 411, N-(3-oxo-7-(o-tolylamino)isoindolin-4-yl)benzamide] the IC50 was > 20 µM. `Cc1ccc(Nc2ccc(NC(=O)c3ccccc3)c3c2CNC3=O)cc1` [Example 412, N-(3-oxo-7-(p-tolylamino)isoindolin-4-yl)benzamide] was tested, and the IC50 was 4.1 µM. `O=C(Nc1ccc(Nc2ccccc2F)c2c1C(=O)NC2)c1ccccc1` [Example 413, N-(7-((2-fluorophenyl)amino)-3-oxoisoindolin-4-yl)benzamide] showed an IC50 of 0.5 µM. `O=C(Nc1ccc(Nc2ccc(F)cc2)c2c1C(=O)NC2)c1ccccc1` [Example 414, N-(7-((4-fluorophenyl)amino)-3-oxoisoindolin-4-yl)benzamide] was tested, and the IC50 was 0.55 µM.
